# Assays:
# Type in all cases: cell-based
# [1] = system: human precision cut IPF lung slices; test: Secreted markers (ELISA) in precision cut IPF lung slices in culture; conditions: CRV431 applied at 5 μM; 4 daily treatment intervals; relative to DMSO vehicle
# Experimental: (§1) This example describes a study conducted with precision cut lung slices. Precision cut slices from explanted lung tissue from a patient with biopsy-confirmed, idiopathic pulmonary fibrosis (IPF) were cultured for 6 days. Treatments were applied to 6 replicate slices per treatment on Day 2 of culture and replaced daily on Days 3, 4, and 5 of culture.
# For generating the results of secreted marker (% daily average change) shown in FIG. 6A, spent medium (24-hr intervals) was collected on Days 3, 4, 5, and 6 to measure secretion by ELISA of six markers of inflammation and fibrosis: monocyte chemoattractant protein (MCP-1), interleukin-6 (IL-6), matrix metalloproteinase-7 (MMP-7), tissue inhibitor of metalloproteinase-1 (TIMP1), hyaluronic acid, and collagen 1α1. The mean level of secretion from 6 replicate slices for each drug treatment was expressed as a percentage change relative to DMSO vehicle treatment for each day of treatment, and then the mean percentage change from 4 daily treatment intervals was calculated.
# [2] = system: human precision cut liver slices (PCLS); test: PCLS RNA-Seq, general statements (protocol not stated)
# Experimental: PCLS were obtained from 5 human donors who underwent resection of liver cancer. Replicate slices were collected from healthy margins of the resections and cultured for 4 or 6 days depending on the experimental protocol. In the Nonstimulation Protocol slices were cultured for 6 days and treated for the entire period with DMSO vehicle or 5 μM CRV431. In the Stimulation Protocol slices were rested for 1 day and then administered the cytokines, TGFβ and PDGF-BB, for 3 days to stimulate inflammation and fibrosis. […]
# Four types of evaluations were conducted on the PCLS: (a) secretion of inflammation and fibrosis biomarkers into the culture medium, (b) histological staining and quantitation of Sirius red as a measure of tissue fibrosis, (c) gene expression of inflammation and fibrosis biomarkers by RT-PCR, and (d) RNA sequencing (RNA-Seq) of the complete transcriptome. […] ELISAs were used to quantify secretion of monocyte chemoattractant protein (MCP-1), interleukin-6 (IL-6), tissue inhibitor of metalloproteinase-1 (TIMP1), hyaluronic acid, fibronectin, and collagen 1α1. For each donor the mean level of biomarker secretion in each treatment group was expressed as a percentage change relative to DMSO vehicle, the percentages averaged for all donors, and finally the mean daily percentage change calculated from all days of evaluation. […]
# [3] = system: human precision cut IPF lung slices; test: Gene expression (RT-PCR) in precision cut IPF lung slices in culture; conditions: CRV431 applied at 5 μM; Day 6 of culture after 4 days of treatment; β actin reference
# Experimental: as §1
# For generating the results of gene expression shown in FIG. 6B, RNA was isolated from 6 pooled lung slices per treatment on Day 6 of culture following 4 days of drug or vehicle treatment and evaluated by reverse transcription-polymerase chain reaction (RT-PCR) for 6 markers of inflammation and fibrosis: MCP-1, IL-6, TGFβ TIMP1, collagen 1α1, and α-smooth muscle actin (αSMA). β actin was used as a reference gene to calculate relative levels of each target gene RNA.
compound,measurement,setting,value
CC[C@@H]1NC(=O)[C@H]([C@H](O)[C@H](C)CCCCCCNC(C)=O)N(C)C(=O)[C@H](C(C)C)N(C)C(=O)[C@H](CC(C)C)N(C)C(=O)[C@H](CC(C)C)N(C)C(=O)[C@@H](C)NC(=O)[C@H](C)NC(=O)[C@H](CC(C)C)N(C)C(=O)[C@H](C(C)C)NC(=O)[C@H](CC(C)C)N(C)C(=O)[C@@H](C)N(C)C1=O [CRV431],"mean daily secretion of all markers (MCP-1, IL-6, MMP-7, TIMP1, hyaluronic acid, collagen 1α1)",[1],decreased
same,"expression of many fibrosis-related genes (more than 10 collagen genes, collagen hydroxylases and oxidases, ACTA2, VEGF, TIMPs)",[2],decreased expression
same,"gene expression of all markers (MCP-1, IL-6, TGFβ, TIMP1, collagen 1α1, αSMA)",[3],decreased

# Source: patent publication US12409206B2, “Use of cyclosporine analogues for treating fibrosis” (Hepion Pharmaceuticals, Inc., priority 2020, dated 2025)
